Laboratory results taken from patent US8329902B2, “Optically pure dihydropyrimidine compounds and their uses for the preparation of a medicament for treatment and prevention of viral diseases” (Beijing Molecule Science And Technology Co., Ltd., priority 2006, dated 2012).
Blank lines part the entries; values can stand above or below the compound they belong to.

Experiments:
HBV DNA = assay: Antiviral activity: inhibition of HBV DNA in supernatant of HepG 2.2.15 cells (dot blot hybridization); format: cell-based; details: Hepatitis B virus, HepG2.2.15, 192 h, 8 days incubation, 50% reduction of type B hepatitis-specific DNA band
Description: The antiviral effection of the compound of the present invention is determined according to the methods described by Sells, et al in (M. A. Sells M. L. Chen G. Proc. Natl. Acad. Sci. 1987, 84, 1005-1009) and Korba, et al (B. E. Korba, J. L. Gerin Antiviral Research 1992, 19, 55-70).
(§1) The antiviral test was carried out in a 96-cell microtiter plate. The first column of the plate only contained a culture medium for growth and HepG 2.2.15 cells, as a control. First, a stock solution (50 mmol) of a test compound was dissolved in DMSO, and further diluted with a culture medium for growth for HepG 2.2.15 cells. Usually, the compound of the present invention was transferred by suction at a test concentration of 100 μg/ml (the first test concentration) to each cell of the second column of the microtiter plate, and then diluted with the culture medium for growth plus 2% fetal bovine serum (25 μL), by 2 times once, up to […] at the maximum.
(§2) Then, 225 μL of a suspension of HepG 2.2.15 cells (5×10^4 cells/ml) in the culture medium fro growth plus 2% fetal bovine serum was added to each pore of the 96-cell microtiter plate.
(§3) The test mixture was incubated under the conditions of 37° C., 5% CO2 for 4 days. Then, the supernatant was removed by suction, and to each pore 225 μL of a new-prepared culture medium was added. Again, the compound of the present invention was added by a solution of 25 μL. The obtained mixture was further incubated for 4 days.
Thereafter, the supernatant was collected, and sucked in vacuum to a 96-cell dot blot chamber covered by nylon film (used in accordance with the directions for use given by the manufacturer).
After the supernatant was transferred onto the nylon film of the dot blot device (as described above), the supernatant of HepG 2.2.15 cells was denaturated (1.5 M NaCl/0.5 M NaOH), neutralized (3 M NaCl/0.5 M Tris. HCl, pH 7.5) and washed (2×SSC). Then, the filter film was kept at 120° C. for 2-4 hours, whereby DNA was baked on the filter film.
Usually, viral DNA of HepG 2.2.15 cells treated on the nylon filter film was detected by using a non-radioactive digoxigenin labelled type B hepatitis-specific DNA probe. Wherein, each time the probe was labelled with digoxigenin, purified and hybridized according to the directions for use given by the manufacturer.
Briefly, pre-hybridization and hybridization were conducted with 5×SSC, 1× blocking agent, 0.1% N-lauroyl sarcosine, 0.02% SDS and 100 μg sperm DNA of black carp. After pre-hybridization at 60° C. for 30 min, a specific hybridization (at 60° C. for 14 hr) was conducted with 20-40 ng/ml digoxigenin labelled denaturated I-BV specific DNA. Then, the filter film was washed, followed by digoxigenin antibody detection for HBV DNA. […]

HepG 2.2.15 cells = assay: Cytotoxicity in HepG 2.2.15 cells (cell morphology by microscope after 8 days, Reed & Muench); format: cell-based; details: pathological change of cells after 8 days
Description: as §1, §2, §3
Prior to collection of the supernatant for determination of the antiviral effect, the cytotoxicity variation of HepG 2.2.15 cells was investigated by using optical microscopic technique or biochemical test method (e.g., Alamar Blue dyeing or Trypan Blue dyeing).
The substance-induced change in cytotoxicity in HepG 2.2.15 cells or change in inhibition of the cells could be determined by using, e.g., optical microscopic technique, and expressed by the change of cell morphology. Such substance-induced change, e.g., cell lysis, vacuolus formation or change in cell morphology, in HepG 2.2.15 cells was apparent as compared with the untreated cells. Taking the observed pathological change of cells as index, the pathological change of cells was observed under microscope after 8 days, a complete destroy being indicated as 4; 75% being indicated as 3; 50% being indicated as 2; 25% being indicated as 1; and no pathological change being indicated as 0. The average extents of pathological change of cells and the suppression percentages at various concentrations were calculated. According to Reed & Muench method, a half toxic concentration (TC50) and a maximum non-toxic concentration (TC0) were calculated.
TC50 refers to the concentration of the compound of the present invention when 50% of cells have a similar morphology to the corresponding cells as a control.

melting point: 224 to 226 °C
Compound: CC1=C(C(=O)N[C@H](C)c2ccccc2)[C@H](c2ccc(F)cc2Cl)N=C(c2nccs2)N1

Compound: CCOC(=O)C1=C(C)NC(c2nccs2)=N[C@H]1c1ccc(F)cc1Cl [Example 2, (R)-4-(2-chloro-4-fluorophenyl)-6-methyl-2-(2-thiazolyl)-1,4-dihydropyrimidin-5-ethylcarboxylate]
IC50 (HBV DNA): < 0.8 µM
TD50 (HepG 2.2.15 cells): >62.9 µM

Compound: CC1=C(C(=O)OCC(F)(F)F)[C@H](c2ccc(F)cc2Cl)N=C(c2nccs2)N1 [Example 3, (R)-4-(2-chloro-4-fluorophenyl)-6-methyl-2-(2-thiazolyl)-1,4-dihydropyrimidin-5-trifluoroethylcarboxylate]
IC50 (HBV DNA): 5.1 µM
TD50 (HepG 2.2.15 cells): 37.4 µM

Compound: CCOC(=O)C1=C(C)NC(c2c(F)cc(F)cc2F)=N[C@H]1c1ccc(F)cc1Cl [Example 5, (R)-4-(2-chloro-4-fluorophenyl)-6-methyl-2-(2,4,6-trifluorophenyl)-1,4-dihydropyrimidin-5-ethylcarboxylate]
IC50 (HBV DNA): 1.3 µM
TD50 (HepG 2.2.15 cells): 13.8 µM
melting point: 162 to 165 °C

Compound: CCOC(=O)C1=C(C)NC(c2cncs2)=N[C@H]1c1ccc(F)cc1Cl [Example 7, (R)-4-(2-chloro-4-fluorophenyl)-6-methyl-2-(5-thiazolyl)-1,4-dihydropyrimidin-5-ethylcarboxylate]
IC50 (HBV DNA): 1.8 µM
TD50 (HepG 2.2.15 cells): >12.5 µM
